Measurements published in patent US5109024A, “Polyamine derivatives as antineoplastic agents” (Merrell Dow Pharmaceuticals Inc., priority 1991, dated 1992).
Where a name gives a salt, the structure may show the parent alone. Read-outs that look alike come from different tables or passages of the source.

Key:
L1210 leukemia [1] = assay: Curative Effect Against Advanced L1210 Leukemia (survival, cures); assay type: in vivo, mice (BDFl male); details: for Cured (mice surviving beyond day 45) / Survival in days (Mean ± S.E.): n=5
Protocol: In an additional study, groups of 5 mice (BDFl male) were inoculated i.p. with 10^5 L1210 leukemia cells on day 0. N,N'-bis[3-(ethylamino)propyl]-1,7-diaminoheptane or vehicle (Control group) were administered at the indicated doses and on the indicated days. […] In a similar study, N,N'-bis[3-(amino)propyl]-1,8-diaminooctane, administered at a dose of […] on days 3 through 7, provided a %T/C of 350 but no cures in 6 animals [Edwards et al., J. Med. Chem. 33, 1369 (1990), See Table II infra].

[2] = system: MCA-38 colon adenocarcinoma cells; assay: Experimental Murine Liver Metastasis (MCA-38 colon adenocarcinoma cells injected intrasplenically); assay type: in vivo, C57BL/6 mice; details: i.p., day 14; for Liver Metastasis No. foci ± S.E.: n = 6, p < 0.001, control 220.6 ± 22.2
Protocol: C57BL/6 mice were injected intrasplenically on day 0 with MCA-38 colon adenocarcinoma cells (1×10^5) so as to induce hepatic metastasis. Liver metastatic foci were determined as described by Bowlin et al. [Cancer Res. 50, 5460 (1990)]. Briefly, injected animals were randomly allocated to one of three treatment groups, 6 animals per group, and test compound or vehicle (Control) was administered i.p. at the doses and times indicated in Table 3. Liver metastatic foci were determined on day 14.

[3] = system: 3LL (Lewis lung) carcinoma cells; assay: Experimental Murine Lung Metastasis (3LL Lewis lung carcinoma cells injected into footpad); assay type: in vivo, C57BL/6 mice
Protocol: C57BL/6 mice were injected into the footpad on day 0 with 3LL (Lewis lung) carcinoma cells (1×10^6) so as to induce lung metastasis. Lung metastatic foci were determined as described by Sunkara et al. [J.Biological Response Modifiers 8, 170 (1989)]. Briefly, injected animals were randomly allocated to one of two treatment groups, 6 animals per group, and test compound or vehicle (Control) was administered i.p. at the doses and times indicated in Table 4. Lung metastatic foci were determined on day 18.

L1210 leukemia [4] = assay: animal or person; assay type: in vivo, mice (BDFl male); details: Mus musculus, L1210, ip, 10 mg/Kg/day, read-out: % T/C (mean survival time treated/mean survival time control ×100)
Protocol: The following study of the antitumor activity of the compounds of formula (I) against L1210 leukemia illustrates this aspect of the present invention.
Groups of 6 mice (BDFl male) were inoculated i.p. with 10^5 L1210 leukemia cells on day 0. Test compounds or vehicle (Control group) were administered at the indicated doses starting on day 1 and continuing through day 5 or 9. Relative survival time was determined and expressed as % T/C (mean survival time treated/mean survival time control ×100). Presence or absence of delayed toxicity was determined by an examination o the animal's external appearance and behavior during the study. For example, an emaciated condition is a key indication of delayed toxicity in these studies.

L1210 leukemia [5] = details: 6.25 mg/Kg × 4 doses per day, days 3 thru 7, n=6, Edwards et al., cited from earlier work
[6] = 5 mg/Kg × 4 doses per day, days 3, 4, 5
[7] = 5 mg/Kg × 4 doses per day, days 3, 4
[8] = 10 mg/Kg × 4 doses per day, days 3, 4

## CCNCCCNCCCCCCCNCCCNCC [Compound 28314, N,N'-Bis[3-(ethylamino)propyl]-1,7-heptanediamine]
L1210 leukemia [1]; [6]
  Cured (mice surviving beyond day 45): 5/5
  Survival in days (Mean ± S.E.): > 45 days
L1210 leukemia [1]; [7]
  Cured (mice surviving beyond day 45): 0/5
  Survival in days (Mean ± S.E.): 16.0 ± 4.0 days
L1210 leukemia [1]; [8]
  Cured (mice surviving beyond day 45): 5/5
  Survival in days (Mean ± S.E.): > 45 days
L1210 leukemia [1]; at 20 and 40 mg/Kg/day
  Curative effect against L1210 leukemia in vivo: effective in providing a curative effect
[2]; days 1-5, 5 mg/Kg
  Liver Metastasis % Inhibition: 87%
  Liver Metastasis No. foci ± S.E.: 29.2 ± 7.7 foci
[2]; days 3-8, 5 mg/Kg
  Liver Metastasis % Inhibition: 72%
  Liver Metastasis No. foci ± S.E.: 62.3 ± 17.5 foci
[3]; days 1-5, 10 mg/Kg, i.p., day 18
  Lung Metastasis % Inhibition: 100%
[3]; days 1-5, 10 mg/Kg, i.p., day 18, n = 6, control 21.3 ± 11.5
  Lung Metastasis No. foci ± S.E.: 0 foci
[3]; results as presented in Table 4
  antimetastatic effect in inhibiting lung metastasis: antimetastatic effect
L1210 leukemia [4]; days 1-5
  response vs control in vivo at 10 mg/kg: 200%

## CNCCCNCCCCCCCNCCCNC [Compound 28249, N,N'-bis[3-(methylamino)propyl]-1,7-diaminoheptane]
L1210 leukemia [4]; days 1-5
  response vs control in vivo at 10 mg/kg: 110%

## CNCC(C)CNCCCCCCCNCC(C)CNC (centres unmarked) [Compound 28600, N,N'-bis[3-(methylamino)-2-(methyl)propyl]-1,7-diaminoheptane]
L1210 leukemia [4]; days 1-5
  response vs control in vivo at 10 mg/kg: 132%

## NCCCNCCCCCCCCNCCCN [Compound 26547, N,N'-bis[3-(amino)propyl]-1,8-diaminooctane]
L1210 leukemia [5]; J. Med. Chem. 33, 1369 (1990)
  % T/C: 350%
  Cured: 0/6
L1210 leukemia [5]; J. Med. Chem. 33, 1369 (1990), listed as N,N'-bis[3-(amino)propyl]-1,8-diaminooctane
  Cured: no cures
L1210 leukemia [5]
  Delayed toxicity: exhibited delayed toxicity
L1210 leukemia [4]; days 1-9
  response vs control in vivo at 10 mg/kg: 171%

## CNCCCNCCCCCCCCNCCCNC [Compound 27259, N,N'-Bis(3-(methylamino)propyl)-1,8-octanediamine tetrahydrochloride]
L1210 leukemia [4]; days 1-9
  response vs control in vivo at 10 mg/kg: 172%

## CCNCCCNCCCCCCCCNCCCNCC [Compound 27393, N,N'-Bis(3-(ethylamino)propyl)-1,8-octanediamine tetrahydrochloride]
L1210 leukemia [4]; days 1-9
  response vs control in vivo at 10 mg/kg: 112%

## CC(N)CCNCCCCCCCNCCC(C)N (centres unmarked) [Compound 28516, N,N'-bis[3-(amino)butyl]-1,7-diaminoheptane, reference compound]
L1210 leukemia [4]; days 1-5
  response vs control in vivo at 10 mg/kg: 200%

## CNC(C)CCNCCCCCCCNCCC(C)NC (centres unmarked) [Compound 101060, N,N'-Bis[3-(methylamino)butyl]-1,7-diaminoheptane tetrahydrochloride]
L1210 leukemia [4]; days 1-5
  response vs control in vivo at 10 mg/kg: 180%
